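Tested at 5 concentrations; 48 h exposure; 96-well plates; endpoints linearly interpolated, else capped at highest concentration. GI50: concentration for 50% inhibition of growth. TGI: total growth inhibition.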
Legend:
Test in all cases: growth of human tumour cells (NCI), 48 h
DMS 114 small cell lung = tested on: DMS 114 small cell lung
DMS 273 small cell lung = tested on: DMS 273 small cell lung
HOP-18 NSCLC = tested on: HOP-18 NSCLC
KM20L2 colon = tested on: KM20L2 colon
LXFL 529 NSCLC = tested on: LXFL 529 NSCLC
M19-MEL melanoma = tested on: M19-MEL melanoma
MDA-MB-435 = tested on: MDA-MB-435
RXF-631 renal = tested on: RXF-631 renal
MDA-N = tested on: MDA-N

| Compound | TGI (DMS 114 small cell lung) | TGI (DMS 273 small cell lung) | TGI (LXFL 529 NSCLC) | GI50 (MDA-MB-435) | TGI (MDA-MB-435) | further results |
| --- | --- | --- | --- | --- | --- | --- |
| O=C(NCCOCCO)c1ccc(O)cc1 | > 100 µM | > 100 µM | > 100 µM | – | – | TGI (HOP-18 NSCLC): > 100 µM; TGI (KM20L2 colon): > 100 µM; TGI (M19-MEL melanoma): > 100 µM |
| c1ccc(Oc2cnc3ccccc3n2)cc1 | – | – | – | > 100 µM | > 100 µM | – |
| OC(c1cc2c(Cl)cc(Cl)cc2c2cc(C(F)(F)F)ccc12)C1CCCCN1 (stereo unspecified) | – | – | – | 2.14 µM | 4.75 µM | – |
| COc1ccc(-n2cc(-c3ccc(F)cc3)[nH]c2=O)cc1OC | – | – | – | > 100 µM | > 100 µM | – |
| CCCCCCCCCCCC(=O)[O][Sn]([CH2]CCC)([CH2]CCC)[CH2]CCC | – | – | – | 0.0553 µM | 0.15 µM | – |
| O=c1c(Br)ccc(Br)cc1Br | – | – | – | 1.85 µM | 4.38 µM | – |
| C[C@]12CC[C@H](O)CC1CCC[C@@H]2O (stereo partly specified) | > 100 µM | > 100 µM | > 100 µM | – | – | TGI (RXF-631 renal): > 100 µM |
| CCCCCCOc1ccc(/C=N/Nc2cc(C)nc3ccc(Br)cc23)cc1 | – | – | – | 1.73 µM | 3.16 µM | – |
| CN1CCN(C(=S)N(C(=O)c2ccc(Cl)cc2)C2CCCCC2)CC1 | – | – | – | – | > 100 µM | TGI (MDA-N): > 100 µM |
| COc1cc(-c2cc(C(=O)N3CCN(C(=O)c4ccccc4NCc4cccs4)CC3)nc3cc(-c4ccccc4)nn23)cc(OC)c1OC | – | – | – | 1.16 µM | 4.34 µM | – |
| CC(=O)SC(C[N+](=O)[O-])c1ccccc1 (stereo unspecified) | – | – | – | – | 6.08 µM | TGI (MDA-N): 9.77 µM |
| NC1=C(O)/C(=N/NS(=O)(=O)c2ccccc2)C(c2cccc(Cl)c2)O1 (stereo unspecified) | 42.1 µM | > 100 µM | 35.8 µM | – | > 100 µM | TGI (HOP-18 NSCLC): > 100 µM; TGI (KM20L2 colon): > 85.6 µM; TGI (M19-MEL melanoma): > 57.2 µM; TGI (MDA-N): 37.9 µM |
| Cc1ccc(Sc2cc([N+](=O)[O-])cc(Sc3ccc(C)cc3)c2Sc2ccc(C)cc2)cc1 | > 100 µM | > 100 µM | > 100 µM | – | – | TGI (KM20L2 colon): > 100 µM; TGI (M19-MEL melanoma): > 100 µM |
| C=C1[C@@H]2CCC(C)(C)[C@H]1CCC(=O)[C@@H]2C(=O)OC | > 100 µM | > 100 µM | > 100 µM | – | – | TGI (KM20L2 colon): > 100 µM; TGI (M19-MEL melanoma): > 100 µM; TGI (RXF-631 renal): > 100 µM |
| COc1cc(/C=C/C(=O)c2ccc(SC)cc2)cc(OC)c1OC | – | – | – | 12.4 µM | 25.8 µM | – |
| OC1OC2COC(c3ccccc3)OC2C(O)C1O (stereo unspecified) | > 100 µM | > 100 µM | > 100 µM | – | – | TGI (HOP-18 NSCLC): > 100 µM; TGI (KM20L2 colon): > 100 µM; TGI (M19-MEL melanoma): > 100 µM |

| Compound | TGI (DMS 114 small cell lung) | TGI (DMS 273 small cell lung) | TGI (LXFL 529 NSCLC) | GI50 (MDA-MB-435) | TGI (MDA-MB-435) | further results |
| --- | --- | --- | --- | --- | --- | --- |
| Nc1c(-c2ccc(-c3c(N)[n+]([O-])c4ccccc4[n+]3[O-])cc2)[n+]([O-])c2ccccc2[n+]1[O-] | 16.3 µM | 31.7 µM | 35.4 µM | – | – | TGI (HOP-18 NSCLC): 20.2 µM; TGI (M19-MEL melanoma): 36.2 µM |
| COc1cccc(-c2nn(C)c3sc(C(=O)NCCN4CCN(c5ccccc5F)CC4)cc23)c1 | – | – | – | 10.5 µM | > 100 µM | – |
| C/C(=N\O)c1ccc(Nc2cc(-c3ccccc3)nc3c(O)cccc23)cc1 | – | – | – | 6.72 µM | 26.6 µM | – |
| O=C1/C=C/[C@@H](O)[C@@H]2C[C@@H](O)C[C@H]2/C=C/CCCCO1 | – | – | – | 0.338 µM | > 26.8 µM | – |
| Clc1ccc2c(NCCCNCc3ccc4c(c3)OCO4)ccnc2c1 | – | – | – | 1.68 µM | 3.29 µM | – |
| COc1ccc(S(=O)(=O)Nc2c(/C=C\c3cc(OC)c(OC)c(OC)c3)ccc(OC)c2O)cc1OC | – | – | – | 0.03 µM | 0.302 µM | – |
| C=CCOc1ccc2c(c1)CC[C@@H]1[C@@H]2CC[C@]2(C)C(=O)/C(=N/O)C[C@@H]12 | – | – | – | 3.27 µM | 17.2 µM | – |
| Cn1cc(C2=C(c3cn(CCCN/C(N)=N\[N+](=O)[O-])c4ccccc34)C(=O)NC2=O)c2ccccc21 | – | – | – | 3.01 µM | 7.73 µM | – |
| COc1ccc(/C=C\c2cc(OC)c(OC(C)=O)c(OC)c2)cc1 | 61.7 µM | > 100 µM | > 100 µM | – | – | TGI (KM20L2 colon): > 100 µM; TGI (M19-MEL melanoma): > 100 µM; TGI (RXF-631 renal): > 100 µM |
| O=C1COCCN1c1ccc(NCc2cn(Cc3ccc(F)cc3)c3ccccc23)cc1 | – | – | – | 14.5 µM | 32.1 µM | – |
| COc1cccc(/C=N/[N-]C(N)=O)c1[O-].[Cu+2].c1ccncc1 | – | – | – | – | – | TGI (KM20L2 colon): > 100 µM |
| O=C1OC(=O)C2C1C1(c3ccccc3)OC2(c2ccccc2)c2c(Br)c(Br)c(Br)c(Br)c21 (stereo unspecified) | > 100 µM | > 100 µM | > 100 µM | – | – | TGI (HOP-18 NSCLC): > 100 µM; TGI (KM20L2 colon): > 100 µM; TGI (M19-MEL melanoma): > 100 µM |
| Cc1cccc(C)c1NC(=O)/C(CC(=O)CC(c1ccccc1)c1c(O)c2ccccc2oc1=O)=N/O (stereo unspecified) | – | – | – | – | > 100 µM | TGI (MDA-N): > 100 µM |
| CCN(CC)[C@@H]1c2cc3c(cc2C(c2cc(OC)c(O)c(OC)c2)C2C(=O)CO[C@@H]21)OCO3 (stereo partly specified) | > 100 µM | > 100 µM | > 100 µM | – | – | TGI (KM20L2 colon): > 100 µM; TGI (M19-MEL melanoma): > 100 µM; TGI (RXF-631 renal): > 100 µM |
| COc1cc(-c2nc3cc(Cl)c(Cl)cc3[nH]2)ccc1OCC(=O)N=Nc1c(O)[nH]c2ccccc12 | – | – | – | 0.389 µM | 1.42 µM | – |
| Nc1nc(-c2ccccc2Cl)cc(-c2ccc(Cl)cc2Cl)n1 | – | – | – | 1.97 µM | 4.93 µM | – |
